In brackets after ≈: the same amount, converted by molar mass.
Tests used:
mice = assay: LDo value for mice by oral administration; format: in vivo
[1] = system: Escherichia coli IAM-1264; assay: Minimum inhibitory concentration, standard serial dilution method; format: cell-based; conditions: 37° C.; for MIC: Escherichia coli, IAM1264, 24 h, inoculum size 1.9×10^5, Brain heart infusion broth
Description: (§1) The minimum inhibitory concentration (mcg/ml) of a variety of the sugar ureide and thioureide derivatives according to this invention against various bacteria was determined in accordance with a standard serial dilution method using as medium Brain heart infusion broth (Difco) at 37° C. the determination being made after 24 hours incubation. The results are shown in Table 1 together with the results of test for ampicillin as reference.

Proteus vulgaris OX 19 = assay: as above; format: cell-based; conditions: 37° C.; for MIC: Proteus vulgaris, OX19, 24 h, inoculum size 1.2×10^5, Brain heart infusion broth; for MIC Proteus vulgaris OX 19: inoculum size 1.2×10^5, Brain heart infusion broth, 24 hours
Description: as §1

[2] = system: Pseudomonas aeruginosa IAM-1007; assay: as above; format: cell-based; conditions: 37° C.; for MIC: Pseudomonas aeruginosa, IAM1007, 24 h, inoculum size 1.3×10^5, Brain heart infusion broth
Description: as §1

[3] = system: Staphylococcus aureus 209 P; assay: as above; format: cell-based; conditions: inoculum size 3.8×10^5, Brain heart infusion broth, 37° C., 24 hours; for MIC: Staphylococcus aureus, 209P
Description: as §1

Salmonella typhi O-901-W = assay: as above; format: cell-based; conditions: 37° C.; for MIC: Salmonella enterica, TYPHI, 24 h, inoculum size 3.5×10^5, Brain heart infusion broth; for MIC Salmonella typhi O-901-W: inoculum size 3.5×10^5, Brain heart infusion broth, 24 hours
Description: as §1

Klebsiella pneumoniae = assay: as above; format: cell-based; conditions: 37° C.; for MIC: Klebsiella pneumoniae, 24 h, inoculum size 1.3×10^5, Brain heart infusion broth
Description: as §1

[4] = system: Staphylococcus aureus No. 26; assay: as above; format: cell-based; conditions: 37° C.; for MIC: Staphylococcus aureus, NO.26, 24 h, inoculum size 2.3×10^5, Brain heart infusion broth
Description: as §1

[5] = inoculum size 1.3×10^5, Brain heart infusion broth, 24 hours

Compound | LDo (mice) [mg/kg] | MIC [1] [µg/mL] | MIC (Proteus vulgaris OX 19) [µg/mL] | MIC [2] [µg/mL] | MIC [3] [µg/mL] | MIC (Salmonella typhi O-901-W) [µg/mL] | MIC (Klebsiella pneumoniae) [µg/mL] | MIC [4] [µg/mL] | MIC Proteus vulgaris OX 19 (Proteus vulgaris OX 19) [µg/mL] | MIC Salmonella typhi O-901-W (Salmonella typhi O-901-W) [µg/mL] | MIC Escherichia coli IAM-1264 ([1]; inoculum size 1.9×10^5, Brain heart infusion broth, 24 hours) [µg/mL] | MIC Pseudomonas aeruginosa IAM-1007 [2, 5] [µg/mL] | MIC Staphylococcus aureus 209 P [3] [µg/mL] | MIC Klebsiella pneumoniae (Klebsiella pneumoniae; [5]) [µg/mL] | MIC Staphylococcus aureus No. 26 ([4]; inoculum size 2.3×10^5, Brain heart infusion broth, 24 hours) [µg/mL]
CC1(C)S[C@@H]2[C@H](NC(=O)[C@H](N)c3ccccc3)C(=O)N2[C@H]1C(=O)O [Ampicillin, α-aminobenzylpenicillin, reference compound] | > 1000 | 3.12 (≈ 8.93 µM) | 100 (≈ 286 µM) | > 100 | 0.1 (≈ 0.286 µM) | 0.39 (≈ 1.12 µM) | 1.56 (≈ 4.46 µM) | > 100 |  |  |  |  |  |  | 
CC(=O)O[C@H]1[C@H](OC(C)=O)[C@@H](NC(=S)N[C@@H](C(=O)N[C@@H]2C(=O)N3[C@@H]2SC(C)(C)[C@@H]3C(=O)O)c2ccccc2)OC[C@H]1OC(C)=O [Example 10, Triethylammonium α-(2,3,4,-tri-O-acetyl-α-D-arabinopyranosylthioureido) benzylpenicillinate] | > 1000 | 50 |  | 200 | 3.12 |  | 50 | 100 | > 100 | 6.25 |  |  |  |  | 
CC(=O)O[C@H]1[C@H](OC(C)=O)[C@@H](NC(=S)N[C@@H](C(=O)N[C@@H]2C(=O)N3[C@@H]2SC(C)(C)[C@@H]3C(=O)O)c2ccccc2)OC[C@H]1OC(C)=O [Example 13, α-(2,3,4-Tri-O-acetyl-α-D-arabinopyranosylthioureido) benzylpenicillin] |  |  |  |  |  |  |  |  | 25 (≈ 37.5 µM) | > 100 | > 100 | > 100 | 3.12 (≈ 4.68 µM) | > 100 | > 100
CC(=O)OC[C@@H](OC(C)=O)[C@@H](OC(C)=O)[C@H](OC(C)=O)[C@@H](OC(C)=O)C(=O)NC(=S)N[C@@H](C(=O)N[C@@H]1C(=O)N2[C@@H]1SC(C)(C)[C@@H]2C(=O)O)c1ccccc1 [Example 17, α-(2,3,4,5,6-Penta-O-acetyl-D-gluconyl-thioureido) benzylpenicillin] | > 1000 | > 100 | 1.56 (≈ 1.96 µM) | > 100 | 0.78 (≈ 0.979 µM) | 50 (≈ 62.7 µM) | > 100 | > 100 |  |  |  |  |  |  | 
CC(=O)OC[C@@H](OC(C)=O)[C@@H](OC(C)=O)[C@H](OC(C)=O)[C@@H](OC(C)=O)C(=O)NC(=S)N[C@@H](C(=O)N[C@@H]1C(=O)N2C(C(=O)O)=C(C)CS[C@H]12)c1ccccc1 [Example 28, 7-[D-α-(2,3,4,5,6-penta-O-acetyl-D-gluconylthioureido)-phenylacetamido] -3-methyl-3-cephem-4-carboxylic acid] | > 1000 | > 100 | 100 (≈ 126 µM) | > 100 | 12.5 (≈ 15.7 µM) | > 100 | > 100 |  |  |  |  |  |  |  | 
